Laboratory results from patent publication US20240374631A1, “A COMPOSITION FOR IMPROVING GUT MICROBIOTA, BEHAVIOURAL PATTERN, ALPHA-SYNUCLEIN LEVELS, SLEEP PATTERN AND/OR SERUM MELATONIN” (GN Corporation Co Ltd, priority 2021, published 2024).

Tested on: gut microbiota
Assay: Gut microbiome analysis (16S rRNA sequencing of fecal samples) in STAM model of NASH
Type: in vivo, C57BL/6J mice
Conditions: pre (baseline)
Source text: The study is reported in accordance with Animal Research: Reporting of In Vivo Experiments (ARRIVE) guidelines. C57BL/6J mice were obtained from Japan SLC, Inc. (Japan). All animals used in this study were cared for under the following guidelines: Act on Welfare and Management of Animals (Ministry of the Environment, Japan, Act No. 105 of Oct. 1, 1973), standards relating to the care and management of laboratory animals and relief of pain (Notice No. 88 of the Ministry of the Environment, Japan, Apr. 28, 2006) and the guidelines for proper conduct of animal experiments (Science Council of Japan, Jun. 1, 2006). Protocol approvals were obtained from SMC Laboratories, Japan's IACUC (Study reference no: […] Mice were maintained in a specific pathogen-free (SPF) facility under controlled conditions of temperature (23±3° C.), humidity (50±20%), lighting (12-hour artificial light and dark cycles; light from 8:00 to 20:00) and air exchange. The STAM model of NASH was induced as previously described [D10]. Mice were given a single subcutaneous injection of 200 μg streptozotocin (STZ, Sigma-Aldrich, USA) solution 2 days after birth and fed with a high-fat diet (HFD, 57 kcal % fat, Cat #HFD32, CLEA Japan, Inc., Japan) from 4-9 weeks of age. All mice develop liver steatosis and diabetes and at […] mice had established steatohepatitis, histologically. Studygroups: There were five study groups, described below. Eight mice were included in each study group. Eight NASH mice were orally administered vehicle supplemented with AFO-202 Beta Glucan at a dose of 1 mg/kg in a volume of 5 mL/kg once daily from 6 to 9 weeks of age. Eight NASH mice were orally administered vehicle supplemented with Telmisartan at a dose of 10 mg/kg once daily from 6 to 9 weeks of age. Frequency: Fecal samples were collected at the 6 weeks of age (before administration) and 9 weeks of age (before sacrifice). Procedure: At 6 weeks of age, fecal samples were collected from each mouse by clean catch method. […] A sterile petri dish was placed on the bench. Gently massage the abdomen, position the bottom of mouse over a fresh petri dish, and collect 1-2 fecal pellets. At sacrifice, fecal samples were aseptically collected from cecum. The tubes with feces were placed on ice immediately. These tubes were snap frozen in liquid nitrogen and stored at -80° C. for shipping. In this analysis, the 16S rRNA sequence data acquired by the next-generation sequencer from the fecal […] was used to perform community analysis using the QIIME2 program for microbial community analysis. The raw read data in FASTQ format output from the next-generation sequencer was trimmed to remove adapter sequences and low QV regions that may be included in the data. Cutadapt was used to remove adapter sequences from DNA sequencing reads. Trimmomatic was used as read trimming tool for Illumina NGS data. The adapter sequence was trimmed using the adapter trimming program “cutadapt” if the Trimming of the region at the end of the read sequence overlapped the corresponding sequence by at least one base (mismatch tolerance: 20%). When reads containing N were present in at least one of Read1 and Read2, both Read1 and Read2 were removed. Trimming of low QV regions was performed on the read data after processing using the QV trimming program “Trimmomatic” under the following conditions. The window of 20 bases is slid from the 5' side, and the area where the average QV is less than 20 is trimmed. After trimming, only the reads with more than 50 bases remaining in both Read1 and Read2 were taken as output. The microbial community analysis based on 16S rRNA sequence was performed on the sequence data trimmed in the previous section using the microbial community analysis program “QIIME2”. The annotation program “sklearn” included in QIIME2 is used to annotate the ASV (OTU) sequences. […]

CCCc1nc2c(C)cc(-c3nc4ccccc4n3C)cc2n1Cc1ccc(-c2ccccc2C(=O)O)cc1 [Telmisartan]
9: Abundance: Erysipelotrichaceae, —, — (line r352) | Abundance: Streptococcaceae, Streptococcus, minor (line r353)
0: Abundance: —, —, — (line r303) | Abundance: Bacteroidaceae, Bacteroides, acidifaciens (line r305) | Abundance: Bacteroidaceae, Bacteroides, acidifaciens (line r306) | Abundance: —, —, — (line r313) | Abundance: Ruminococcaceae, Oscillospira, — (line r314) | Abundance: Erysipelotrichaceae, —, — (line r317) | Abundance: Ruminococcaceae, Oscillospira, — (line r320) | Abundance: F16, —, — (line r323) | Abundance: Lachnospiraceae, Other, Other (line r325) | Abundance: —, —, — (line r329) | Abundance: Lachnospiraceae, Other, Other (line r330) | Abundance: Other, Other, Other (line r331) | Abundance: Enterococcaceae, Vagococcus, — (line r332) | Abundance: Other, Other, Other (line r335) | Abundance: Ruminococcaceae, Oscillospira, — (line r337) | Abundance: —, —, — (line r338) | Abundance: Lachnospiraceae, —, — (line r339) | Abundance: Ruminococcaceae, Oscillospira, — (line r340) | Abundance: Lachnospiraceae, Coprococcus, — (line r341) | Abundance: —, —, — (line r343) | Abundance: Rikenellaceae, —, — (line r345) | Abundance: —, —, — (line r346) | Abundance: —, —, — (line r347) | Abundance: Lachnospiraceae, —, — (line r349) | Abundance: Lachnospiraceae, Clostridium, Other (line r351) | Abundance: Ruminococcaceae, Oscillospira, — (line r354) | Abundance: —, —, — (line r358) | Abundance: —, —, — (line r359) | Abundance: —, —, — (line r360) | Abundance: Streptococcaceae, Streptococcus, — (line r363) | Abundance: S24-7, —, — (line r365) | Abundance: Other, Other, Other (line r367) | Abundance: [Mogibacteriaceae], —, — (line r368) | Abundance: Enterobacteriaceae, Enterobacter, Other (line r369) | Abundance: Erysipelotrichaceae, —, — (line r371) | Abundance: Aerococcaceae, Aerococcus, — (line r372) | Abundance: Ruminococcaceae, Oscillospira, — (line r373) | Abundance: Ruminococcaceae, Oscillospira, — (line r374) | Abundance: Lachnospiraceae, Coprococcus, — (line r377) | Abundance: Family Ruminococcaceae, Genus Oscillospira, Species — (table row r381) | Abundance: Family S24-7, Genus —, Species — (table row r382) | Abundance: Family Ruminococcaceae, Genus Ruminococcus, Species — (table row r383) | Abundance: Family Ruminococcaceae, Genus Ruminococcus, Species — (table row r389) | Abundance: Family Lachnospiraceae, Genus —, Species — (table row r390) | Abundance: Family Ruminococcaceae, Genus Oscillospira, Species — (table row r391) | Abundance: Family Corynebacteriaceae, Genus Corynebacterium, Species stationis (table row r394) | Abundance: Family S24-7, Genus —, Species — (table row r396) | Abundance: Family Ruminococcaceae, Genus Oscillospira, Species — (table row r397) | Abundance: Family Ruminococcaceae, Genus Oscillospira, Species — (table row r398) | Abundance: Family Ruminococcaceae, Genus Ruminococcus, Species — (table row r399) | Abundance: Family [Mogibacteriaceae], Genus —, Species — (table row r400) | Abundance: Family Erysipelotrichaceae, Genus Coprobacillus, Species — (table row r401) | Abundance: Family Erysipelotrichaceae, Genus Clostridium, Species cocleatum (table row r402) | Abundance: Family S24-7, Genus —, Species — (table row r403) | Abundance: Family Coriobacteriaceae, Genus —, Species — (table row r404) | Abundance: Family Coriobacteriaceae, Genus Adlercreutzia, Species — (table row r405) | Abundance: Family Enterococcaceae, Genus Vagococcus, Species — (table row r407) | Abundance: Family [Mogibacteriaceae], Genus —, Species — (table row r409) | Abundance: Family S24-7, Genus —, Species — (table row r413) | Abundance: Family Ruminococcaceae, Genus Oscillospira, Species — (table row r414) | Abundance: Family Planococcaceae, Genus Sporosarcina, Species — (table row r415) | Abundance: Family Ruminococcaceae, Genus Ruminococcus, Species — (table row r419) | Abundance: Family Coriobacteriaceae, Genus Adlercreutzia, Species — (table row r423) | Abundance: Family Other, Genus Other, Species Other (table row r424) | Abundance: Family Ruminococcaceae, Genus Other, Species Other (table row r425) | Abundance: Family Erysipelotrichaceae, Genus —, Species — (table row r426) | Abundance: Family Deferribacteraceae, Genus Mucispirillum, Species schaedleri (table row r427) | Abundance: Family Methylobacteriaceae, Genus Methylobacterium, Species Other (table row r428)
13: Abundance: Lachnospiraceae, —, — (line r319)
8: Abundance: Ruminococcaceae, Other, Other (line r342) | Abundance: —, —, — (line r348)
31: Abundance: Family Ruminococcaceae, Genus Oscillospira, Species — (table row r384)
10: Abundance: Ruminococcaceae, Other, Other (line r308)
25: Abundance: Lachnospiraceae, Dorea, — (line r307)
15: Abundance: —, —, — (line r350)
7: Abundance: Lachnospiraceae, —, — (line r309) | Abundance: Lachnospiraceae, Other, Other (line r356) | Abundance: Lachnospiraceae, —, — (line r362) | Abundance: Family Erysipelotrichaceae, Genus Other, Species Other (table row r417)
19: Abundance: Christensenellaceae, —, — (line r324)
36: Abundance: Other, Other, Other (line r357)
11: Abundance: Erysipelotrichaceae, Coprabacillus, — (line r334) | Abundance: Ruminococcaceae, Oscillospira, — (line r336) | Abundance: Family Lachnospiraceae, Genus Other, Species Other (table row r380)
14: Abundance: Lachnospiraceae, Other, Other (line r312) | Abundance: Lachnospiraceae, —, — (line r316) | Abundance: Ruminococcaceae, Other, Other (line r328)
22: Abundance: Lachnospiraceae, —, — (line r321)
5: Abundance: Other, Other, Other (line r375) | Abundance: Family Ruminococcaceae, Genus Other, Species Other (table row r395)
47: Abundance: S24-7, —, — (line r302)
42: Abundance: Ruminococcaceae, Oscillospira, — (line r315)
6: Abundance: Erysipelotrichaceae, —, — (line r344)
1: Abundance: S24-7, —, — (line r311)
80: Abundance: —, —, — (line r327)
12: Abundance: Ruminococcaceae, Oscillospira, — (line r326)
23: Abundance: Ruminococcaceae, Ruminococcus, — (line r333)
27: Abundance: —, —, — (line r355)
49: Abundance: Other, Other, Other (line r322)
20: Abundance: Lachnospiraceae, —, — (line r310)
35: Abundance: Ruminococcaceae, Oscillospira, — (line r304) | Abundance: Other, Other, Other (line r378)
